Results as given in patent publication USRE43244E1, “Phenylethylamines and condensed rings variants as prodrugs of catecholamines, and their use” (priority 2001, dated 2012).
Structures can show the parent of a compound that is named as a salt. Blank lines part the entries; values can stand above or below the compound they belong to.

How the values were obtained:
Dopa accumulation = details: normal animals, after NSD1015; cited from earlier work
D3 dopamine receptor = D3 dopamine receptor (Rattus norvegicus, UniProt P19020); details: among screened classical and atypical neuroleptics; cited from earlier work
D3 dopamine receptor, sequence (P19020 whole entry): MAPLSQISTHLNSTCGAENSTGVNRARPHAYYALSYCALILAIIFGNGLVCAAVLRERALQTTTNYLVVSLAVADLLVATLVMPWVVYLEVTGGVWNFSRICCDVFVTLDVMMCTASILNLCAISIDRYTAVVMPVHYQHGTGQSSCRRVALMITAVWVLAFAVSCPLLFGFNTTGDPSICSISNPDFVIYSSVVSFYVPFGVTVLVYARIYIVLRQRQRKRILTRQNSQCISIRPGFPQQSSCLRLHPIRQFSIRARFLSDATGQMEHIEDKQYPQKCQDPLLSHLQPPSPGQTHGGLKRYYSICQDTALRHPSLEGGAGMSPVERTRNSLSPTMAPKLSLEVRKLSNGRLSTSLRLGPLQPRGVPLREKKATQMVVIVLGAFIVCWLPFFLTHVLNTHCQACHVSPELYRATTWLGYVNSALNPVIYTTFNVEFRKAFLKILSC

[1] = test system: DA metabolites DOPAC and HVA; details: no NSD1015 treatment; cited from earlier work
rodents = details: cited from earlier work; for Dopaminergic stereotypic behavioral effects (sniffing, rearing): gross behavioral observations, certain dosages, rodents; for Locomotor activity: photocell motility meters
rats [2] = assay: Behavioral testing in rats of GMC6650; assay type: in vivo, rat
Experimental: Behavioral Testing in Rats of Compound GMC6650 (Example 6)
One rat, weighing about 350 g, was injected SC in the neck with 1 μmol/kg of GMC6650. Another rat, weighing about 350 g, was injected PO with the same dose. The drug (3.4 mg) was initially dissolved in: ethanol (50 μL), 1 M acetic acid (2 drops), and water (1.4 mL), corresponding to 15 μmol per 1.5 mL, which means a concentration of 10 μmol/mL. By first diluting that solution 10 times and injecting 0.35 mL, the given dose will be 1 μmol/kgμmol/kg. This goes for both of rats.
Stereotypy was intense and was registered for several hours by visual inspection. […] The next morning, the SC rat was still active, while the PO rat was resting. Duration of action was thus ≧10 h for both sc and po administration of 1 μmol/kg.

rats [3] = details: cited from earlier work
DA receptors = details: cited from earlier work
[4] = 1 μmol/kg, SC or PO (same pattern in both rats)

SMILES: CCCN(CCC)[C@@H]1CCc2c(OC)cccc2[C@@H]1C (relative stereo) [(+)-UH232, (+)-cis-1S,2R-5-methoxy-1-methyl-2-(N,N-di-n-propylamino)tetralin]
- Dopa accumulation (Dopa accumulation): raise the Dopa accumulation
- Preference for the D3 site (D3 dopamine receptor): highest preference for the D3 site
- Levels of DA metabolites DOPAC and HVA [1]: raise the levels
- Dopaminergic stereotypic behavioral effects (sniffing, rearing) (rodents): weak
- Locomotor activity (rodents): increase the locomotor activity

SMILES: CCCN1CCCC(C2=CC(=O)CCC2)C1 (stereo not shown) (as salt: hydrochloride)
- melting point: 184 to 185 °C

SMILES: CCCN1CCC[C@@H]2CC3=C(CCCC3=O)C[C@H]21 (relative stereo) [GMC6650, 1-Propyl-trans-2,3,4,4a,5,7,8,9,10,10a-decahydrobenzo[g]quinolin-6-one]
- Activity the next morning (rats [2]; 1 μmol/kg PO): resting
- Activity the next morning (rats [2]; 1 μmol/kg SC): still active
- Duration of action (rats [2]; 1 μmol/kg po): ≥ 10 h
- Duration of action (rats [2]; 1 μmol/kg sc): ≥ 10 h
- Stereotypy after 10 hours (rats [2]; 1 μmol/kg, SC and PO rat, 10 hours after dosing): still showing signs of stereotypy
- Time until clear signs of stereotypy (rats [2]; [4]): 30 min
- Time until obvious dopaminergic effects (chewing, sniffing, licking, penile grooming, grooming) (rats [2]; [4]): 15 min
- Time until rats became sedated, closing or partly closing their eyes (rats [2]; [4]): 10 min
- Stereotypy, visual inspection (rats [2]; 1 μmol/kg, SC or PO, registered for several hours): intense

SMILES: CCCN(CCC)C1CCC2=C(CCCC2=O)C1 (racemic) [(±)-5-keto-DPATT, (±)-5-keto-2-N,N-di-n-propylamino-tetrahydrotetralin]
- Dopaminergic effects in vivo (rats [3]): does possess dopaminergic effects
- Affinity to DA receptors (in vitro binding) (DA receptors): no affinity

SMILES: CCCN[C@@H]1CCc2c(OC)cccc2[C@@H]1C (relative stereo) [(+)-AJ76, (+)-cis-1S,2R-5-methoxy-1-methyl-2-(N-n-propylamino)tetralin]
- Dopa accumulation (Dopa accumulation): raise the Dopa accumulation
- Preference for the D3 site (D3 dopamine receptor): highest preference for the D3 site
- Levels of DA metabolites DOPAC and HVA [1]: raise the levels
- Dopaminergic stereotypic behavioral effects (sniffing, rearing) (rodents): weak
- Locomotor activity (rodents): increase the locomotor activity

Further lines, results first:

- melting point: 110 to 112 °C
SMILES: CCCN(CCC1=CC(=O)CCC1)CCc1ccccc1 (as salt: hydrochloride)

- melting point: 95 to 97 °C
SMILES: CCCN(CCC)CCC1=CC(=O)CCC1 (as salt: hydrochloride)

- melting point: 148 to 149 °C
SMILES: CCN(CC)CCC1=CC(=O)CCC1 (as salt: hydrochloride)
